According to patent US4377587A, “Arylamine derivatives and use thereof as microbicides” (Ciba-Geigy Corporation, priority 1980, dated 1983):
Values after ≈ are worked out from the molar mass of the structure shown.

Tests used:
Water solubility = format: physicochemical; conditions: 25° C.
Source text: (§1) Determination of physico-chemical data
(a) Reduced water solubility

Phytophthora infestans [1] = format: in vivo, Phytophthora infestans (on tomato plants); conditions: tomato, sprayed 0.06% active ingredient 22 hours after infestation, evaluated 5 days after infestation
[2] = Volatility: evaporation half-life T50 in an evaporating tube; format: physicochemical; conditions: 50° C., stream of air of 20 m/h, relative to T50 of Metalaxyl
Procedure: as §1
In an evaporating tube, the evaporation half-life values T50 of representative fungicides of this invention are determined at 50° C. and in a stream of air of 20 m/h. The values are shown below, relative to the corresponding half-life T50 of Metalaxyl.

Pythium debaryanum [3] = assay: Action on Pythium debaryanum on sugar beets, (a) after soil application; format: in vivo; conditions: sugar beet, 20 ppm of active ingredient based on volume of soil, 2-3 weeks at 20°-24° C.
Source text: (§2) Action on Pythium debaryanum on sugar beets
(a) Action after soil application
The fungus is cultivated on carrot chips nutrient solution and added to a mixture of earth and sand. Flower pots are filled with the infected soil, in which sugar beet seeds are then sown. Immediately after sowing, the test preparations formulated as wettable powders are poured in the form of aqueous suspensions over the soil (20 ppm of active ingredient, based on the volume of the soil). The pots are then stood for 2-3 weeks in a greenhouse at 20°-24° C. The soil is kept uniformly moist by gently spraying it with water. The emergence of the sugar beet plants as well as the number of healthy and sick plants are ascertained in evaluating the test.

Podosphaera leucotricha = assay: Residual-protective action against Podosphaera leucotricha on apples; format: in vivo; conditions: apple seedlings, spray 0.06% of active ingredient, evaluated 12 days after infection
Procedure: Residual-protective action against Podosphaera leucotricha on apples
Apple seedlings in the 5-leaf stage are sprayed with a spray mixture (0.06% of active ingredient) prepared from a wettable powder formulation of the active ingredient. After 24 hours the treated plants are infected with a conidia suspension of the fungus and placed in a climatic chamber at 70% relative humidity and 20° C. Evaluation of fungus infestation is made 12 days after infection.

Phytophthora infestans [4] = format: in vivo, Phytophthora infestans (on tomato plants); conditions: tomato, spray 0.06% active ingredient, infested after 24 hours, evaluated after 5 days at 20° C.
Pythium debaryanum [5] = assay: Action on Pythium debaryanum on sugar beets, (b) after seed dressing application; format: in vivo; conditions: sugar beet, seed dressing 0.06%, 2-3 weeks at c. 20° C.
Procedure: as §2
(b) Action after seed dressing application
The fungus is cultivated on carrot chip nutrient solution and added to a mixture of earth and sand. Flower pots are filled with the infected soil and sugar beet seeds which have been treated with the test preparations formulated as seed dressing powders are sown therein (0.06% of one of the compounds of Tables 1 and 2). The pots are then stood in a greenhouse for 2-3 weeks at c. 20° C. The soil is kept uniformly moist by gently spraying it with water. The emergence of the sugar beet plants is ascertained in evaluating the test.

Venturia inaequalis = assay: Residual-protective action against Venturia inaequalis on apple shoots; format: in vivo; conditions: spray 0.06%, evaluated 15 days after infection
Procedure: Residual-protective action against Venturia inaequalis on apple shoots
Apple cuttings with 10-20 cm long fresh shoots are sprayed with a spray mixture prepared from a wettable powder formulation of the active ingredient (0.06%). After 24 hours the treated plants are infected with a conidia suspension of the fungus. The plants are then incubated for 5 days at 90-100% relative humidity and stood in a greenhouse for a further 10 days at 20°-24° C. Scab infestation is evaluated 15 days after infection.

Erysiphe graminis = assay: Action against Erysiphe graminis on barley, residual protective action; format: in vivo, Erysiphe graminis (on barley plants); conditions: 0.02% active ingredient sprayed, infected after 3-4 hours, evaluated after 10 days
Procedure: Action against Erysiphe graminis on barley
Residual protective action
Barley plants about 8 cm in height are sprayed with a spray mixture (0.02% of active ingredient) prepared from the active ingredient formulated as a wettable powder. The treated plants are dusted with conidia of the fungus after 3-4 hours. The infected barley plants are then stood in a greenhouse at about 22° C. The extent of the fungus infection is evaluated after 10 days.

Compound | solubility (Water solubility) | fungus attack compared with untreated and infected control plants (100% attack), residual curative (Phytophthora infestans [1]) | Multiple of Metalaxyl T50 (evaporation half-life) [2] | emergent plants (fully effective against Pythium pathogens), soil application (Pythium debaryanum [3]) | fungus attack compared with untreated and infected control seedlings (100% attack) (Podosphaera leucotricha) | fungus attack compared with untreated control plants (100% attack), residual-protective (Phytophthora infestans [4]) | emergent plants (fully effective against Pythium pathogens), seed dressing application (Pythium debaryanum [5]) | scab infestation (reduced to) (Venturia inaequalis) | fungus attack compared with control plants (100% attack) (Erysiphe graminis)
COCC(=O)N(c1c(C)cccc1N)C(C)C(=O)OC (centres unmarked) [Compound 2, N-(1'-methoxycarbonylethyl)-N-methoxyacetyl-2-amino-6-methyl-aniline] | 300 µg/mL (≈ 1.07 mM) | less than 10% | 5.4 × | over 90% | less than 10% | less than 10% | over 90% | – | –
COCC(=O)N(c1c(N)ccc(C)c1C)C(C)C(=O)OC (centres unmarked) [Compound 8, N-(1'methoxycarbonylethyyl)-N-methoxyacetyl-2,3-dimethyl-6-aminoaniline] | – | less than 10% | – | over 90% | less than 10% | less than 10% | over 90% | 10-15% | –
COCC(=O)N(c1c(C)ccc(N)c1C)C(C)C(=O)OC (centres unmarked) [Compound 10, N-(1'methoxycarbonylethyl)-N-methoxyacetyl-2,6-dimethyl-3-aminoaniline] | – | less than 10% | – | over 90% | less than 10% | less than 10% | over 90% | 10-15% | less than 10%
COCC(=O)N(c1c(C)ccc([N+](=O)[O-])c1C)C(C)C(=O)OC (centres unmarked) [Compound 28, N-(1'-methoxycarbonylethyl)-N-methoxyacetyl-2,6-dimethyl-3-nitroaniline] | 2500 µg/mL (≈ 7.71 mM) | less than 10% | 35.8 × | over 90% | less than 10% | less than 10% | over 90% | 10-15% | –
CCOCC(=O)N(c1c(C)ccc([N+](=O)[O-])c1C)C(C)C(=O)OC (centres unmarked) [Compound 31, N-(1'-methoxycarbonylethyl)-N-ethoxyacetyl-2,6-dimethyl-3-nitroaniline] | 2500 µg/mL (≈ 7.39 mM) | less than 10% | 41.8 × | over 90% | less than 10% | less than 10% | over 90% | 10-15% | –
COCC(=O)N(c1c(C)ccc([N+](=O)[O-])c1C)C(C)C(=O)OC(C)C (centres unmarked) [Compound 33, N-(1'-isopropyloxycarbonylethyl)-N-methoxyacetyl-2,6-dimethyl-3-nitroaniline] | 500 µg/mL (≈ 1.42 mM) | less than 10% | 45.6 × | over 90% | less than 10% | less than 10% | over 90% | – | –
COCC(=O)N(c1c(C)cccc1[N+](=O)[O-])C(C)C(=O)OC (centres unmarked) [Compound 48, N-(1'-methoxycarbonylethyl)-N-methoxyacetyl-2-methyl-6-nitroaniline] | 4000 µg/mL (≈ 12.9 mM) | less than 10% | 12.3 × | over 90% | less than 10% | less than 10% | over 90% | – | –
CCOCC(=O)N(c1c(Cl)ccc([N+](=O)[O-])c1C)C(C)C(=O)OC (centres unmarked) [Compound 107] | – | less than 10% | – | over 90% | – | – | over 90% | – | less than 10%
COCC(=O)N(c1c(N)ccc2ccccc12)C(C)C(=O)OC (centres unmarked) [Compound 701, 1N-(1'-methoxycarbonylethyl)-1N-methoxyacetyl-1,2-diaminonaphthalene] | – | less than 10% | – | over 90% | – | less than 10% | over 90% | 10-15% | –
